Laboratory results reported in patent US10934300B2, “Atropisomerism for enhanced kinase inhibitor selectivity” (San Diego State University Foundation, priority 2017, dated 2021).
Values joined by “and” are separate entries in the source; they are usually repeats but may differ in a detail not shown here. Identical values can stand only once. Like-named read-outs stand apart in the source and are kept apart here.

Tests used:
[1] = target: Ret kinase (Homo sapiens, UniProt P07949); experiment: Z'-LYTE kinase inhibition, Ret; conditions: for IC50: Ret IC50 (nM), Table 4; for IC50 of compound Kinase/IC50 of compound Yes: Ret relative to Yes
Sequence of Ret kinase (P07949 29-1114): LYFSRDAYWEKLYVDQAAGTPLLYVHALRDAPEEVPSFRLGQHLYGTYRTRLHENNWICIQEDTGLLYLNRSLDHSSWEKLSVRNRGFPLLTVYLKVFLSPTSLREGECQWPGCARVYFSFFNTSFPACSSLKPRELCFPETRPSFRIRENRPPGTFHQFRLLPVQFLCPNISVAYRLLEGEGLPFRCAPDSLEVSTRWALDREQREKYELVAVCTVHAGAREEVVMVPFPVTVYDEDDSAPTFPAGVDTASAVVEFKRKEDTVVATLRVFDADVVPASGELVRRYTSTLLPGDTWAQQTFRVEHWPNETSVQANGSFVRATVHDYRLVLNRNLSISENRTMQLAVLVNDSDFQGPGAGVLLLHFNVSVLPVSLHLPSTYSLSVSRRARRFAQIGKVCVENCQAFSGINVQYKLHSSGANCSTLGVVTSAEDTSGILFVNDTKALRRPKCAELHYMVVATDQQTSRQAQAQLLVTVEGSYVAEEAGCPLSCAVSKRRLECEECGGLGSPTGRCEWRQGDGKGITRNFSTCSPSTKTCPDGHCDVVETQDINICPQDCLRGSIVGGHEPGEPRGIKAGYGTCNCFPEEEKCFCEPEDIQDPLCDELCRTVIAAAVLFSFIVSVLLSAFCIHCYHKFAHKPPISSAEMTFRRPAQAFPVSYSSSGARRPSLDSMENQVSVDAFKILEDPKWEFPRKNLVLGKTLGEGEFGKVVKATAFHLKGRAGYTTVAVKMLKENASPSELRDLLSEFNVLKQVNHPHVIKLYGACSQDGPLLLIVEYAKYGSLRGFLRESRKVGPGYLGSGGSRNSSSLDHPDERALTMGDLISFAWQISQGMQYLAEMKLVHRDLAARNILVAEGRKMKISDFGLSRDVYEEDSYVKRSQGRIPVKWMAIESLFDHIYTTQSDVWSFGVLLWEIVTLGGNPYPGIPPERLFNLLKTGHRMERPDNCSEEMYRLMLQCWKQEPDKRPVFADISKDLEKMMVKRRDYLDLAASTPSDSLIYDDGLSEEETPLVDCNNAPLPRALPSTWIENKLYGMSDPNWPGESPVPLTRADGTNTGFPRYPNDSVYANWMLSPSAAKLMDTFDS

[2] = target: Src kinase (Homo sapiens, UniProt P12931); experiment: Z'-LYTE kinase inhibition, Src; conditions: for IC50: Table 4; for IC50 of compound Kinase/IC50 of compound Yes: Src relative to Yes
Sequence of Src kinase (P12931 whole entry): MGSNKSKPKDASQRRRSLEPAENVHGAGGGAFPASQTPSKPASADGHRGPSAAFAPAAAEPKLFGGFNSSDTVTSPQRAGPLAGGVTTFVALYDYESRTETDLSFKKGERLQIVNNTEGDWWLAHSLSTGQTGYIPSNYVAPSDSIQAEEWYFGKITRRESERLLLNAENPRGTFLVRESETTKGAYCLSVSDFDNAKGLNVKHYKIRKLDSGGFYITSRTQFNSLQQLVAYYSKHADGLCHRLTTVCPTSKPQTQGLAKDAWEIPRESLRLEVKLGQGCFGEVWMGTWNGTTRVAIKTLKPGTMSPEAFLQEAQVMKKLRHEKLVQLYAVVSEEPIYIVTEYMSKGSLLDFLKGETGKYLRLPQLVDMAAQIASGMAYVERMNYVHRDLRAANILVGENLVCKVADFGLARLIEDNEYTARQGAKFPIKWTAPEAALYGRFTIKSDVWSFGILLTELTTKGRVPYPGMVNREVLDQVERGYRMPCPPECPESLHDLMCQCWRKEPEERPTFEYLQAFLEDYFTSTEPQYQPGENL

[3] = target: Abl (Homo sapiens, UniProt P00519); experiment: Z'-LYTE kinase inhibition, Abl; conditions: for IC50 of compound Kinase/IC50 of compound Yes: Abl relative to Yes
Sequence of Abl (P00519 whole entry): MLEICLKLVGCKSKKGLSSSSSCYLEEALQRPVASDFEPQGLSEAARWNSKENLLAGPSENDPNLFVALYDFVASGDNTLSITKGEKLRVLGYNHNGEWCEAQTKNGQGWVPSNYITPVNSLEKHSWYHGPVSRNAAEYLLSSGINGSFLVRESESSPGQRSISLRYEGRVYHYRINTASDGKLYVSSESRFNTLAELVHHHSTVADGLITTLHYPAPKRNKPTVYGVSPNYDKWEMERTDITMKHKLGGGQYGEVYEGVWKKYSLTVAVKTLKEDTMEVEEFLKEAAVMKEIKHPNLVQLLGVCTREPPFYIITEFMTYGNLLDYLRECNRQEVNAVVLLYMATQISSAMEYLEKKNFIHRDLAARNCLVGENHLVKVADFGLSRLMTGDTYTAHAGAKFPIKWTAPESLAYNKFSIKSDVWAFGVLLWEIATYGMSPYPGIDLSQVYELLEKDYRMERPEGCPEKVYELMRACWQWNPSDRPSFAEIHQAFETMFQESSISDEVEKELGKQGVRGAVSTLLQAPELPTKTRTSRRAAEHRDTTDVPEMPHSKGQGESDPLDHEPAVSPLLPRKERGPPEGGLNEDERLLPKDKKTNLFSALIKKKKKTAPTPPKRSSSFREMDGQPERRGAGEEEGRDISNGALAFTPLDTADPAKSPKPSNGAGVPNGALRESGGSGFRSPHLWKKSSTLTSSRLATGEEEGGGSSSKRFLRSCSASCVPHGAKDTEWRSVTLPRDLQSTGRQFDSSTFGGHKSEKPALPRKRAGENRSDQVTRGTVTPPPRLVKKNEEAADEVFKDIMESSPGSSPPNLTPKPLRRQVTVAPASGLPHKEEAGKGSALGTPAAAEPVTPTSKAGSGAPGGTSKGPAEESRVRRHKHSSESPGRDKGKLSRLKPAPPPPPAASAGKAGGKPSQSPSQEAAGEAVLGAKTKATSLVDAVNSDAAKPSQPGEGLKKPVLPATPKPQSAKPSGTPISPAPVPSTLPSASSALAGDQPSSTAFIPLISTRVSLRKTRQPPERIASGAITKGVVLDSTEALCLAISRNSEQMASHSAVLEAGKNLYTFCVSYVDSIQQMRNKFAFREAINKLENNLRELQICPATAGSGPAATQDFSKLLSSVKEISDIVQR

[4] = target: Yes (Homo sapiens, UniProt P07947); experiment: Z'-LYTE kinase inhibition, Yes; conditions: for IC50 of compound Kinase/IC50 of compound Yes: Yes relative to Yes
Sequence of Yes (P07947 whole entry): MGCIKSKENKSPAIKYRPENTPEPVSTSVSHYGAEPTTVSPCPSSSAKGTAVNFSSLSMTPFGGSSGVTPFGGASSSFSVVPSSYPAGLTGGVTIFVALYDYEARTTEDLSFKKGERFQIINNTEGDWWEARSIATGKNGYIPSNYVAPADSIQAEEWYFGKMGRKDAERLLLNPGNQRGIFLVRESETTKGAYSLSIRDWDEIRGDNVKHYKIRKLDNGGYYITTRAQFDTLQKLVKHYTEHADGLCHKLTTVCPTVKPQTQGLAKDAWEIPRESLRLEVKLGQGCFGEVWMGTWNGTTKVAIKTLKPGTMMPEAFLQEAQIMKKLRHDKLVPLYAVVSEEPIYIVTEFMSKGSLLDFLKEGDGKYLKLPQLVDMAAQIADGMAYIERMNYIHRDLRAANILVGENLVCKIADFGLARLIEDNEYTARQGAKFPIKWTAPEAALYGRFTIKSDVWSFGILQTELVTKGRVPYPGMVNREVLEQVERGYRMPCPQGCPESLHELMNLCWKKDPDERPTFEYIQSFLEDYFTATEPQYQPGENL

[5] = test system: panel of tyrosine kinases; experiment: Kinase inhibitor profiling across a panel of tyrosine kinases, selectivity score; type: biochemical
Description: To analyze each analog's selectivity across the panel, selectivity scores were used (Davis et al., Nat. Biotechnol. 2011, 29, 1046-51), which are simply the number of kinases inhibited above a certain threshold divided by the number of kinases evaluated. […] For example at 1000 nM 2e-(R) yielded an S(40%) of 0.11 while 2e-(S) gave an S(40%) of 0.16. […] Differences in selectivity between 2e-(R) and 2e-(S) at 5000 nM (4.5 times the IC50 of 2e-(S) toward Src) and for 5 at 1000 nM (6.25 times the IC50 of 5 toward Src) can be viewed graphically across tyrosine kinases (FIG. 3). Importantly, similar trends were also observed across each of the atropisomeric series tested.
All samples were sent out to Life Technologies to obtain kinase inhibition data. A brief description of the assays and analyses are included below.
Assay Theory (SelectScreen® Kinase Profiling Services (Life Technologies, Madison, Wis. USA). The Z′-LYTE® biochemical assay employs a fluorescence-based, coupled-enzyme format and is based on the differential sensitivity of phosphorylated and non-phosphorylated peptides to proteolytic cleavage. The peptide substrate is labeled with two fluorophores—one at each end—that make up a FRET pair.
In the primary reaction, the kinase transfers the gamma-phosphate of ATP to a single tyrosine, serine or threonine residue in a synthetic FRET-peptide. In the secondary reaction, a site-specific protease recognizes and cleaves non-phosphorylated FRET-peptides. Phosphorylation of FRET-peptides suppresses cleavage by the Development Reagent. Cleavage disrupts FRET between the donor (i.e., coumarin) and acceptor (i.e., fluorescein) fluorophores on the FRET-peptide, whereas uncleaved, phosphorylated FRET-peptides maintain FRET. A ratiometric method, which calculates the ratio (the Emission Ratio) of donor emission to acceptor emission after excitation of the donor fluorophore at 400 nm, is used to quantitate reaction progress, as shown in the equation below: […]
A significant benefit of this ratiometric method for quantitating reaction progress is the elimination of well-to-well variations in FRET-peptide concentration and signal intensities. […] Both cleaved and uncleaved FRET-peptides contribute to the fluorescence signals and therefore to the Emission Ratio. The extent of phosphorylation of the FRET-peptide can be calculated from the Emission Ratio. The Emission Ratio will remain low 1f the FRET-peptide is phosphorylated (i.e., no kinase inhibition) and will be high if the FRET-peptide is non-phosphorylated (i.e., kinase inhibition).
Both cleaved and uncleaved FRET-peptides contribute to the fluorescence signals and therefore to the Emission Ratio. The extent of phosphorylation of the FRET-peptide can be calculated from the Emission Ratio. The Emission Ratio will remain low if the FRET-peptide is phosphorylated (i.e., no kinase inhibition) and will be high if the FRET-peptide is non-phosphorylated (i.e., kinase inhibition).

[6] = target: EGFR (Homo sapiens, UniProt P00533); experiment: Z'-LYTE kinase inhibition, EGFR; conditions: EGFR relative to Yes
Sequence of EGFR (P00533 25-1210): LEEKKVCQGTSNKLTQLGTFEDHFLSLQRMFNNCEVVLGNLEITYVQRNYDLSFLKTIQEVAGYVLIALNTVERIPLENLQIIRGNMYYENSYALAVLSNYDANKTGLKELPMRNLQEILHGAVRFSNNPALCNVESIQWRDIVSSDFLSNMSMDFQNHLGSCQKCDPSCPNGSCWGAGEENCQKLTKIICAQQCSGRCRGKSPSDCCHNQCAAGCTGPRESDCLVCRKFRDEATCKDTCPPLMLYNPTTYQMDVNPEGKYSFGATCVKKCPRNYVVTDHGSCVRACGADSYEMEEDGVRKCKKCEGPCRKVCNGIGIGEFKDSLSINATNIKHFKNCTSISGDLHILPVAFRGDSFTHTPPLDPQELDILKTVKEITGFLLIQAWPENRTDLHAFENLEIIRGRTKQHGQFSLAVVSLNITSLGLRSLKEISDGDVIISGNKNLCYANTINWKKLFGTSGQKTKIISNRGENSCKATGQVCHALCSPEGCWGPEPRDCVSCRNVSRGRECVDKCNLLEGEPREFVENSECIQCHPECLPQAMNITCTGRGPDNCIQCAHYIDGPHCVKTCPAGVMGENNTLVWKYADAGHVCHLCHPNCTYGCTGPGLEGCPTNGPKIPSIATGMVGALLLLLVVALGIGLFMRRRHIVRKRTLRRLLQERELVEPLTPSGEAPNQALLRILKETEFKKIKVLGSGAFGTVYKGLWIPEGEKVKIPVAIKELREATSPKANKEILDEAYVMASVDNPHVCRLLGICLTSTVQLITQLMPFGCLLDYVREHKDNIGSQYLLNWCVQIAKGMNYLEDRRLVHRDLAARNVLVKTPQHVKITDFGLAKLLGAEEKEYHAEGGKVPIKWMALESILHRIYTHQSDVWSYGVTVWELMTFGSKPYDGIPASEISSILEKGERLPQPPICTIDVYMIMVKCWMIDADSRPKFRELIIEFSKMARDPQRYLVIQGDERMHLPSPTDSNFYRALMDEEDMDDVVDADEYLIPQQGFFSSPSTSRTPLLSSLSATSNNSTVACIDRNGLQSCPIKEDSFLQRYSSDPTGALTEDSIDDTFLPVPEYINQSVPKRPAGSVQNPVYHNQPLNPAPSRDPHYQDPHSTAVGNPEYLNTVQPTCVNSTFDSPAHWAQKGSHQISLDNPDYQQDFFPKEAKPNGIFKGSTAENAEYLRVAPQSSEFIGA

[7] = Experimental measurement of the barriers to rotation (racemization followed by chiral HPLC); type: physicochemical; conditions: for kobs: observed rate constant of racemization in ethanol at the heating temperature (not given), in s^-1
Description: Enantiomerically enriched atropisomeric pyrrolopyrimidine analogues were isolated via chiral HPLC (Daicel Chiralpak IA PN:80335, 3 mL/min, 80:20 or 50:50 hexanes:ethanol, 25° C.) and evaporated in vacuo. The enantiomerically enriched analogues were then dissolved in ethanol and placed in a sealed 2-dram vial and heated under constant temperature on an aluminum block. At each time point, an aliquot of the mixture was removed and quenched in an HPLC vial containing ice cold 80:20 hexanes:ethanol. Each sample was then injected into the chiral HPLC system (Daicel Chiralpak IA PN:80325, 1 mL/min, 80:20 or 50:50 hexanes:ethanol, 25° C.) and enantiomeric excess (ee) measured. The timepoint and enantiomeric excess (ee) data was then plotted in order to determine an observed rate constant, kobs, at the corresponding temperature. The barrier to rotation was then calculated using the relationship of kracemization=2*kenantiomenzation and then substituted into the Gibbs Free Energy Equation:
[formula] where h=Planck Constant, kb=Boltzmann Constant, T=Temp. (K), R=Gas Constant.

`COc1ccc(C)c(-c2c(Cl)n(C(C)(C)C)c3ncnc(N)c23)c1` (atropisomer, axis not shown; (Ra)) [(Ra)-1] showed an IC50 [1] of 1580 nM and an IC50 ([2]; Src IC50 (nM)) of 4550 nM.

With `COc1ccc(-c2c(Cl)n(C(C)(C)C)c3ncnc(N)c23)c(C)c1` (atropisomer, axis not shown; (Ra)) [(Ra)-2] the IC50 [1] was 1870 nM and the IC50 ([2]; read-out: Src IC50) was > 10000 nM.

In the case of `COc1ccc(-c2c(C)n(C(C)(C)C)c3ncnc(N)c23)c(C)c1` (atropisomer, axis not shown; (Ra)) [(Ra)-7], the IC50 [1] is reported as 450 nM and the IC50 ([2]; Src IC50 (nM)) is reported as 3320 nM.

In the case of `Cc1c(-c2cccc3ccccc23)c2c(N)ncnc2n1C(C)(C)C` (atropisomer, axis not shown; (Ra)) [(Ra)-10], the IC50 [1] is reported as 282 nM and the IC50 ([2]; Src IC50 (nM)) is reported as 5570 nM.

In the case of `Cc1c(-c2cccc3c2CCCC3)c2c(N)ncnc2n1C(C)(C)C` (atropisomer, axis not shown; (Ra)) [(Ra)-13], the IC50 [1] is reported as > 10000 nM and the IC50 ([2]; Src IC50 (nM)) is reported as > 10000 nM.

`COc1ccc(C)c(-c2c(Cl)n(C(C)(C)C)c3ncnc(N)c23)c1` (atropisomer, axis not shown; (Sa)) [(Sa)-1] showed an IC50 [1] of 2240 nM and an IC50 ([2]; Src IC50 (nM)) of 4090 nM.

In the case of `COc1ccc(-c2c(Cl)n(C(C)(C)C)c3ncnc(N)c23)c(C)c1` (atropisomer, axis not shown; (Sa)) [(Sa)-2], the IC50 [1] is reported as 3000 nM and the IC50 ([2]; Src IC50 (nM)) is reported as > 10000 nM.

Work on `COc1ccc(-c2c(C)n(C(C)(C)C)c3ncnc(N)c23)c(C)c1` (atropisomer, axis not shown; (Sa)) [(Sa)-7] yielded an IC50 [1] of 918 nM and an IC50 ([2]; Src IC50 (nM)) of 4750 nM.

For `Cc1ccc(-c2c(C)n(C(C)C)c3ncnc(N)c23)c2ccccc12` (atropisomer, axis not shown; (Sa)) [(Sa)-11], the IC50 [1] was 2860 nM and the IC50 ([2]; Src IC50 (nM)) was 4560 nM.

For `COc1ccc(Cl)c(-c2c(Cl)n(C(C)(C)C)c3ncnc(N)c23)c1` (single isomer, unassigned) [2e-(R), 7-(tert-butyl)-6-chloro-5-(2-chloro-5-methoxyphenyl)-7H-pyrrolo[2,3-d]pyrimidin-4-amine], the IC50 [3] was ≥ 10 µM, the “IC50 of compound Kinase/IC50 of compound Yes” value (“IC50 … of compound Yes” below) [3] was 10.0 and the “IC50 … of compound Yes” value [4] was 1. For the same compound, the “IC50 … of compound Yes” value [1] was 2.07, the “augmentation/increase of 5's inherent selectivity” value ([1]; Ret versus Abl and Src) was 4 fold and the “S(40%): number of kinases inhibited greater than 40% divided by number of kinases tested (including Src)” value ([5]; 1000 nM) was 0.11. The “S(40%): number of kinases inhibited greater than 40% divided by number of kinases tested (including Src)” value ([5]; 5000 nM) was 0.44, the “Inhibited % (n/18) of tyrosine kinases” value ([5]; share of the 18 tyrosine kinases inhibited, concentration not printed in Table 3) was “(R): Inhibited 11% (2/18)” and the “IC50 … of compound Yes” value [2] was 6.22. For the same compound, the “IC50 … of compound Yes” value [6] was >10.0.

With `COc1cc(-c2c(Cl)n(C(C)(C)C)c3ncnc(N)c23)c(Cl)cc1C` (single isomer, unassigned) [(Ra)-3] the IC50 [1] was 7070 nM and the IC50 ([2]; Src IC50 (nM)) was > 10000 nM.

`COc1ccc(Cl)c(-c2c(C)n(C(C)C)c3ncnc(N)c23)c1` (single isomer, unassigned) [(Ra)-4] showed an IC50 [1] of 699 nM and an IC50 ([2]; Src IC50 (nM)) of 1330 nM.

For `COc1ccc(C)c(-c2c(C)n(C(C)(C)C)c3ncnc(N)c23)c1` (single isomer, unassigned) [(Ra)-5], the IC50 [1] was 731 nM and the IC50 ([2]; Src IC50 (nM)) was 6370 nM.

`COc1ccc(Cl)c(-c2c(Br)n(C(C)(C)C)c3ncnc(N)c23)c1` (single isomer, unassigned) [(Ra)-6] showed an IC50 [1] of 1500 nM.

`COc1ccc(-c2c(CN)n(C(C)(C)C)c3ncnc(N)c23)c(C)c1` (single isomer, unassigned) [(Ra)-8] showed an IC50 [1] of 773 nM and an IC50 ([2]; Src IC50 (nM)) of 5290 nM.

`Cc1c(-c2cccc3ccccc23)c2c(N)ncnc2n1C(C)C` (single isomer, unassigned) [(Ra)-9] gave an IC50 [1] of 34 nM and an IC50 ([2]; Src IC50 (nM)) of 1370 nM.

For `Cc1c(-c2cncc3ccccc23)c2c(N)ncnc2n1C(C)(C)C` (single isomer, unassigned) [(Ra)-12], the IC50 [1] was 282 nM and the IC50 ([2]; Src IC50 (nM)) was 7450 nM.

In the case of `COc1cc(-c2c(Cl)n(C(C)(C)C)c3ncnc(N)c23)c(Cl)cc1C` (single isomer, unassigned) [(Sa)-3], the IC50 [1] is reported as 4810 nM and the IC50 ([2]; Src IC50 (nM)) is reported as 918 nM.

`COc1ccc(Cl)c(-c2c(C)n(C(C)C)c3ncnc(N)c23)c1` (single isomer, unassigned) [(Sa)-4] showed an IC50 [1] of 2270 nM and an IC50 ([2]; Src IC50 (nM)) of 406 nM.

In the case of `COc1ccc(C)c(-c2c(C)n(C(C)(C)C)c3ncnc(N)c23)c1` (single isomer, unassigned) [(Sa)-5], the IC50 [1] is reported as 2500 nM and the IC50 ([2]; Src IC50 (nM)) is reported as 4100 nM.

`COc1ccc(Cl)c(-c2c(Br)n(C(C)(C)C)c3ncnc(N)c23)c1` (single isomer, unassigned) [(Sa)-6] gave an IC50 [1] of 8000 nM.

For `COc1ccc(-c2c(CN)n(C(C)(C)C)c3ncnc(N)c23)c(C)c1` (single isomer, unassigned) [(Sa)-8], the IC50 [1] was 9070 nM and the IC50 ([2]; Src IC50 (nM)) was > 10000 nM.

In the case of `Cc1c(-c2cccc3ccccc23)c2c(N)ncnc2n1C(C)C` (single isomer, unassigned) [(Sa)-9], the IC50 [1] is reported as 8810 nM and the IC50 ([2]; Src IC50 (nM)) is reported as > 10000 nM.

With `Cc1c(-c2cccc3ccccc23)c2c(N)ncnc2n1C(C)(C)C` (single isomer, unassigned) [(Sa)-10] the IC50 [1] was 9560 nM and the IC50 ([2]; Src IC50 (nM)) was > 10000 nM.

With `Cc1c(-c2cncc3ccccc23)c2c(N)ncnc2n1C(C)(C)C` (single isomer, unassigned) [(Sa)-12] the IC50 [1] was 17 nM and the IC50 ([2]; Src IC50 (nM)) was 316 nM.

For `COc1ccc(Cl)c(-c2c(Cl)n(C3CCCC3)c3ncnc(N)c23)c1` [Compound 1e, 6-chloro-5-(2-chloro-5-methoxyphenyl)-7-cyclopentyl-7H-pyrrolo[2,3-d]pyrimidin-4-amine], the “Barrier to Rotation” value [7] was 27.2 kcal/mol and the kobs [7] was 1.24E−04.

In the case of `COc1ccc(Br)c(-c2c(Cl)n(C3CCCC3)c3ncnc(N)c23)c1` [Compound 1f, 5-(2-bromo-5-methoxyphenyl)-6-chloro-7-cyclopentyl-7H-pyrrolo[2,3-d]pyrimidin-4-amine], the “Barrier to Rotation” value [7] is reported as 29.0 kcal/mol and the kobs [7] is reported as 1.01E−05.

For `COc1ccc(Cl)c(-c2c(Cl)n(C(C)(C)C)c3ncnc(N)c23)c1` [Compound 2e, 7-(tert-butyl)-6-chloro-5-(2-chloro-5-methoxyphenyl)-7H-pyrrolo[2,3-d]pyrimidin-4-amine], the “Barrier to Rotation” value [7] was 28.6 kcal/mol and the kobs [7] was 3.27E−05.

With `COc1ccc(Br)c(-c2c(Cl)n(C(C)(C)C)c3ncnc(N)c23)c1` [Compound 2f, 5-(2-bromo-5-methoxyphenyl)-7-(tert-butyl)-6-chloro-7H-pyrrolo[2,3-d]pyrimidin-4-amine] the “Barrier to Rotation” value [7] was 30.4 kcal/mol and the kobs [7] was 2.68E−05.

With `COc1cccc(-c2cn(C(C)(C)C)c3ncnc(N)c23)c1` [Compound 5, reference compound] the “IC50 … of compound Yes” value [3] was 2.65, the “relative selectivities favoring Yes (IC50 kinase/IC50 YES) over Ret, Src, and Abl” value [4] was 1.4-2.65 fold and the “IC50 … of compound Yes” value [4] was 1. The “IC50 … of compound Yes” value [1] was 1.4, the “S(40%): number of kinases inhibited greater than 40% divided by number of kinases tested (including Src)” value ([5]; 200 nM) was 0.44 and the “activity for the tyrosine kinase panel tested” value ([5]; 200 nM and 1000 nM) was “near pan activity”. For the same compound, the “S(40%): number of kinases inhibited greater than 40% divided by number of kinases tested (including Src)” value ([5]; 1000 nM) was 0.72, the “IC50 … of compound Yes” value [2] was 1.64 and the “IC50 … of compound Yes” value [6] was 7 and 6.96.
